According to patent US20220119354A1, “DIAMINO-SUBSTITUTED PYRIDINES AND PYRIMIDINES AS HERBICIDES” (FMC Corporation, priority 2019, published 2022):

Experiments:
Type in all cases: in vivo
[1] = system: barnyardgrass (Echinochloa crus-galli); assay: Test B flooded paddy test, barnyardgrass; settings: Flood, 250 g ai/ha, applied to paddy water, 2-leaf stage, visual evaluation after 13 to 15 d
In short: (§1)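 Pots flooded to 3 cm above the soil when treated, with test compound added straight to the water and the flood maintained. Treated plants were at the 2-leaf stage and stayed 13–15 d in greenhouse. Response versus untreated controls scored visually from 0 (no effect) to 100 (complete control).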

[2] = system: pigweed (Amaranthus retroflexus); assay: Test A preemergence, pigweed; settings: 0 to 100 scale; for Pigweed plant response rating: 0 is no effect, 100 is complete control
In short: (§2)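 Greenhouse evaluation: treated and untreated pots were held about 10 d, then injury was rated visually from 0 (no effect) to 100 (complete control). Application was preemergence to soil or postemergence to seedlings 2–10 cm tall, using a non-phytotoxic solvent formulation with surfactant.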

corn (Zea mays) = assay: Test A postemergence, corn; settings: 0 to 100 scale
In short: as §2

[3] = system: ducksalad (Heteranthera limosa); assay: Test B flooded paddy test, ducksalad; settings: Flood, 250 g ai/ha, applied to paddy water, 2-leaf stage, visual evaluation after 13 to 15 d
In short: as §1

[4] = system: barnyardgrass (Echinochloa crus-galli); assay: Test A postemergence, barnyardgrass; settings: 0 to 100 scale
In short: as §2

kochia (Kochia scoparia) [5] = assay: Test A preemergence, kochia; settings: 0 to 100 scale; for Kochia plant response rating: 0 is no effect, 100 is complete control
In short: as §2

[6] = system: wheat (Triticum aestivum); assay: Test A postemergence, wheat; settings: 0 to 100 scale
In short: as §2

[7] = system: blackgrass (Alopecurus myosuroides); assay: Test A postemergence, blackgrass; settings: 0 to 100 scale
In short: as §2

[8] = system: ragweed (common ragweed, Ambrosia elatior); assay: Test A postemergence, ragweed; settings: 0 to 100 scale
In short: as §2

[9] = system: pigweed (Amaranthus retroflexus); assay: Test A postemergence, pigweed; settings: 0 to 100 scale
In short: as §2

[10] = system: ryegrass, Italian (Lolium multiflorum); assay: Test A postemergence, Italian ryegrass; settings: 0 to 100 scale
In short: as §2

[11] = system: barnyardgrass (Echinochloa crus-galli); assay: Test A preemergence, barnyardgrass; settings: 0 to 100 scale; for Barnyardgrass plant response rating: 0 is no effect, 100 is complete control
In short: as §2

rice (Oryza sativa) = assay: Test B flooded paddy test, rice; settings: Flood, 250 g ai/ha, applied to paddy water, 2-leaf stage, visual evaluation after 13 to 15 d
In short: as §1

[12] = system: foxtail, giant (Setaria faberii); assay: Test A preemergence, giant foxtail; settings: 0 to 100 scale; for Foxtail, Giant plant response rating: 0 is no effect, 100 is complete control
In short: as §2

[13] = system: ryegrass, Italian (Lolium multiflorum); assay: Test A preemergence, Italian ryegrass; settings: 0 to 100 scale; for Ryegrass, Italian plant response rating: 0 is no effect, 100 is complete control
In short: as §2

[14] = system: sedge, umbrella (small-flower umbrella sedge, Cyperus difformis); assay: Test B flooded paddy test, umbrella sedge; settings: Flood, 250 g ai/ha, applied to paddy water, 2-leaf stage, visual evaluation after 13 to 15 d
In short: as §1

kochia (Kochia scoparia) [15] = assay: Test A postemergence, kochia; settings: 0 to 100 scale
In short: as §2

[16] = system: foxtail, giant (Setaria faberii); assay: Test A postemergence, giant foxtail; settings: 0 to 100 scale
In short: as §2

[17] = system: ragweed (common ragweed, Ambrosia elatior); assay: Test A preemergence, ragweed; settings: 0 to 100 scale; for Ragweed plant response rating: 0 is no effect, 100 is complete control
In short: as §2

[18] = system: galium (catchweed bedstraw, Galium aparine); assay: Test A postemergence, galium; settings: 0 to 100 scale
In short: as §2

[19] = 125 g ai/ha, 0 no effect, 100 complete control
[20] = 500 g ai/ha, 0 no effect, 100 complete control

CC[C@@H](Nc1ncc(C(F)(F)F)c(N)n1)c1coc2ccccc12 [Compound 80]
Plant response rating, Barnyardgrass (0 to 100 scale, 0 is no effect, 100 is complete control) [1]: 90
Pigweed plant response rating ([2]; 125 g ai/ha): 90
Pigweed plant response rating ([2]; 500 g ai/ha): 100
Plant response rating, Corn (corn (Zea mays); [19]): 20
Plant response rating, Corn (corn (Zea mays); [20]): 50
Plant response rating, Ducksalad (0 to 100 scale, 0 is no effect, 100 is complete control) [3]: 85
Plant response rating, Barnyardgrass [4, 19]: 40
Plant response rating, Barnyardgrass [4, 20]: 100
Kochia plant response rating (kochia (Kochia scoparia) [5]; 125 g ai/ha): 90
Kochia plant response rating (kochia (Kochia scoparia) [5]; 500 g ai/ha): 100
Plant response rating, Wheat [6, 19]: 30
Plant response rating, Wheat [6, 20]: 30
Plant response rating, Blackgrass [7, 19]: 0
Plant response rating, Blackgrass [7, 20]: 70
Plant response rating, Ragweed [8, 19]: 90
Plant response rating, Ragweed [8, 20]: 90
Plant response rating, Pigweed [9, 19]: 100
Plant response rating, Pigweed [9, 20]: 100
Plant response rating, Ryegrass, Italian [10, 19]: 0
Plant response rating, Ryegrass, Italian [10, 20]: 90
Barnyardgrass plant response rating ([11]; 125 g ai/ha): 90
Barnyardgrass plant response rating ([11]; 500 g ai/ha): 100
Plant response rating, Rice (0 to 100 scale, 0 is no effect, 100 is complete control) (rice (Oryza sativa)): 10
Foxtail, Giant plant response rating ([12]; 125 g ai/ha): 90
Foxtail, Giant plant response rating ([12]; 500 g ai/ha): 100
Ryegrass, Italian plant response rating ([13]; 125 g ai/ha): 70
Ryegrass, Italian plant response rating ([13]; 500 g ai/ha): 100
Plant response rating, Sedge, Umbrella (0 to 100 scale, 0 is no effect, 100 is complete control) [14]: 95
Plant response rating, Kochia (kochia (Kochia scoparia) [15]; [19]): 80
Plant response rating, Kochia (kochia (Kochia scoparia) [15]; [20]): 90
Plant response rating, Foxtail, Giant [16, 19]: 0
Plant response rating, Foxtail, Giant [16, 20]: 0
Ragweed plant response rating ([17]; 125 g ai/ha): 100
Ragweed plant response rating ([17]; 500 g ai/ha): 100
Plant response rating, Galium [18, 19]: 70
Plant response rating, Galium [18, 20]: 90

C[C@H](Nc1ncc(C(F)(F)F)c(N)n1)c1cc2ccccc2s1 [Compound 5]
Plant response rating, Barnyardgrass (0 to 100 scale, 0 is no effect, 100 is complete control) [1]: 0
Plant response rating, Pigweed ([2]; 125 g ai/ha): 0
Plant response rating, Pigweed ([2]; 500 g ai/ha): 50
Plant response rating, Corn (corn (Zea mays); 125 g ai/ha): 10
Plant response rating, Corn (corn (Zea mays); 500 g ai/ha): 0
Plant response rating, Ducksalad (0 to 100 scale, 0 is no effect, 100 is complete control) [3]: 0
Plant response rating, Barnyardgrass ([4]; 125 g ai/ha): 0
Plant response rating, Barnyardgrass ([4]; 500 g ai/ha): 0
Plant response rating, Kochia (kochia (Kochia scoparia) [5]; 125 g ai/ha): 0
Plant response rating, Kochia (kochia (Kochia scoparia) [5]; 500 g ai/ha): 0
Plant response rating, Wheat ([6]; 125 g ai/ha): 0
Plant response rating, Wheat ([6]; 500 g ai/ha): 0
Plant response rating, Blackgrass ([7]; 125 g ai/ha): 0
Plant response rating, Blackgrass ([7]; 500 g ai/ha): 0
Plant response rating, Ragweed ([8]; 125 g ai/ha): 0
Plant response rating, Ragweed ([8]; 500 g ai/ha): 10
Plant response rating, Pigweed ([9]; 125 g ai/ha): 20
Plant response rating, Pigweed ([9]; 500 g ai/ha): 90
Plant response rating, Ryegrass, Italian ([10]; 125 g ai/ha): 0
Plant response rating, Ryegrass, Italian ([10]; 500 g ai/ha): 0
Plant response rating, Barnyardgrass ([11]; 125 g ai/ha): 0
Plant response rating, Barnyardgrass ([11]; 500 g ai/ha): 0
Plant response rating, Rice (0 to 100 scale, 0 is no effect, 100 is complete control) (rice (Oryza sativa)): 0
Plant response rating, Foxtail, Giant ([12]; 125 g ai/ha): 0
Plant response rating, Foxtail, Giant ([12]; 500 g ai/ha): 10
Plant response rating, Ryegrass, Italian ([13]; 125 g ai/ha): 20
Plant response rating, Ryegrass, Italian ([13]; 500 g ai/ha): 20
Plant response rating, Sedge, Umbrella (0 to 100 scale, 0 is no effect, 100 is complete control) [14]: 0
Plant response rating, Kochia (kochia (Kochia scoparia) [15]; 125 g ai/ha): 0
Plant response rating, Kochia (kochia (Kochia scoparia) [15]; 500 g ai/ha): 20
Plant response rating, Foxtail, Giant ([16]; 125 g ai/ha): 0
Plant response rating, Foxtail, Giant ([16]; 500 g ai/ha): 0
Plant response rating, Ragweed ([17]; 125 g ai/ha): 0
Plant response rating, Ragweed ([17]; 500 g ai/ha): 0
Plant response rating, Galium ([18]; 125 g ai/ha): 0
Plant response rating, Galium ([18]; 500 g ai/ha): 40

CC(Nc1ncc(C#N)c(N)n1)c1cc2ccccc2o1 (racemic) [Compound 19]
Plant response rating, Barnyardgrass (0 to 100 scale, 0 is no effect, 100 is complete control) [1]: 0
Plant response rating, Pigweed ([2]; 125 g ai/ha): 30
Plant response rating, Pigweed ([2]; 500 g ai/ha): 90
Plant response rating, Corn (corn (Zea mays); 125 g ai/ha): 0
Plant response rating, Corn (corn (Zea mays); 500 g ai/ha): 10
Plant response rating, Ducksalad (0 to 100 scale, 0 is no effect, 100 is complete control) [3]: 0
Plant response rating, Barnyardgrass ([4]; 125 g ai/ha): 0
Plant response rating, Barnyardgrass ([4]; 500 g ai/ha): 0
Plant response rating, Kochia (kochia (Kochia scoparia) [5]; 125 g ai/ha): 0
Plant response rating, Kochia (kochia (Kochia scoparia) [5]; 500 g ai/ha): 20
Plant response rating, Wheat ([6]; 125 g ai/ha): 0
Plant response rating, Wheat ([6]; 500 g ai/ha): 0
Plant response rating, Blackgrass ([7]; 125 g ai/ha): 20
Plant response rating, Blackgrass ([7]; 500 g ai/ha): 60
Plant response rating, Ragweed ([8]; 125 g ai/ha): 0
Plant response rating, Ragweed ([8]; 500 g ai/ha): 0
Plant response rating, Pigweed ([9]; 125 g ai/ha): 0
Plant response rating, Pigweed ([9]; 500 g ai/ha): 50
Plant response rating, Ryegrass, Italian ([10]; 125 g ai/ha): 0
Plant response rating, Ryegrass, Italian ([10]; 500 g ai/ha): 20
Plant response rating, Barnyardgrass ([11]; 125 g ai/ha): 0
Plant response rating, Barnyardgrass ([11]; 500 g ai/ha): 0
Plant response rating, Rice (0 to 100 scale, 0 is no effect, 100 is complete control) (rice (Oryza sativa)): 0
Plant response rating, Foxtail, Giant ([12]; 125 g ai/ha): 0
Plant response rating, Foxtail, Giant ([12]; 500 g ai/ha): 20
Plant response rating, Ryegrass, Italian ([13]; 125 g ai/ha): 0
Plant response rating, Ryegrass, Italian ([13]; 500 g ai/ha): 60
Plant response rating, Sedge, Umbrella (0 to 100 scale, 0 is no effect, 100 is complete control) [14]: 0
Plant response rating, Kochia (kochia (Kochia scoparia) [15]; 125 g ai/ha): 0
Plant response rating, Kochia (kochia (Kochia scoparia) [15]; 500 g ai/ha): 30
Plant response rating, Foxtail, Giant ([16]; 125 g ai/ha): 0
Plant response rating, Foxtail, Giant ([16]; 500 g ai/ha): 0
Plant response rating, Ragweed ([17]; 125 g ai/ha): 0
Plant response rating, Ragweed ([17]; 500 g ai/ha): 50
Plant response rating, Galium ([18]; 125 g ai/ha): 0
Plant response rating, Galium ([18]; 500 g ai/ha): 70
